Molecular target: T1, endogenous ATX/lysoPLD activity in whole blood (Mus musculus, UniProt Q9R1E6)
T1 construct: from tissue; host or cells: mouse plasma / whole blood
Assay: Inhibition of ATX activity in whole blood ex vivo (TOOS assay)
Assay type: biochemical
Conditions: 2 h 37°C, TOOS with 1 mM LPC
Experimental: ATX/LysoPLD activity was assessed based on the amount of choline released from LPC with the use of TOOS (N-ethyl-N-(2-hydoroxy-3-sulfopropyl)-3-methylaniline) reagent. In this assay ATX-mediated LPC-liberated choline is oxidised by choline oxidase to betaine and hydrogen peroxide (H2O2). The latter in the presence of horseradish peroxidase reacts with TOOS and 4-aminoantipyrene (4-AAP) to form a pink quinoneimine dye measured at 555 nm. […]
The liberated choline was detected by adding 100 μl of a color mix containing 4-AAP and TOOS (0.3 mM), horseradish peroxidase (5.3 UnitmL^−1) and choline oxidase (2 UnitmL^−1). Absorbance was measured at 555 nm and data were analyzed using the statistical software package Prism 4.0 (Graphpad Software Inc, La Jolla, CA, USA). For each sample and control the absorbance was plotted against time and the slope (da/min) for the linear (steady-state) portion of each reaction profile was calculated. Absorbance units were converted to nmol of choline/min/ml by comparison with a choline standard curve or by use of the extinction coefficient for the quinoneimine dye according to the following equation: [drawing 1] […]
Venous blood from wild type mouse was collected in EDTA tubes. […] IC50 values using ATX activity and LPA levels were determined graphically as described above.

IC50: 600 nM
SMILES: CCCCCCCCCCCCCCCC(=O)OC[C@@H](O)CC(Br)P(=O)(O)O (stereo partly drawn) [BrP-LPA, 1-bromo-3(S)-hydroxy-4-(palmitoyloxy)butyl-phosphonate]

From paper PMC3726599, “A Metabolically-Stabilized Phosphonate Analog of Lysophosphatidic Acid Attenuates Collagen-Induced Arthritis” (PLoS ONE, 2013)
